Several values for one entry are separate records, joined by “and”; a condition that tells them apart may be missing. Equal entries are not always repeated.
How the values were obtained:
[1] = tested on: intracellular L. donovani; assay: Pilot high-content screening against intracellular L. donovani at 10 μM; type: cell-based; conditions: screening concentration 10 µM
Protocol: (§1) PMA-treated THP-1 human monocytic cells were seeded at 0.8 × 10^4 cells per well in a 384-well culture plate (Greiner Bio-One, Kremsmünster, Austria) in RPMI-1640 complete medium supplemented with 10% FBS. After 48 h of incubation at 37 °C in the presence of 5% CO2, the promastigotes of L. donovani that were incubated with lectin for 30 min at 28 °C were added to the cells at a parasite to cell ratio of 20:1. […] The negative control consisted of THP-1 infected with the parasite with only 0.5% DMSO. After 72 h, the cells that were infected and treated with the drug were washed with serum-free RPMI-1640 medium. The cells and parasites were stained using 5 μM DRAQ5 and 4% PFA. The images were acquired based on reading using an Operetta® automated microscope (PerkinElmer, Inc., Waltham, MA 02451 USA). They were further analyzed using Columbus^TM (PerkinElmer, Inc. Waltham, MA, USA) software to quantify parasite numbers, host cell numbers, and infection ratios. In brief, large-sized nucleus of host cells was first detected using Draq-5 (Thermo Fisher, Rockford, IL, USA) signal and the host cell boundary masking was performed using the low-intensity signals from cytosols (additional feature of Draq-5). Then the small-sized nucleus signal by Draq-5 was used to identify parasites within the area of masked host cell. Infection ratio (IR) was determined with the value of the number of infected cells divided by total number of cells and the average number of parasites per macrophage (P/φ) was defined by the value of the number of parasites divided by the number of infected cells in the acquired image. The average IR value of the negative control wells was calculated as 0.53. Compounds selected based on the screening results were further assessed in a dose-dilution manner (two-fold serial dilution for 20 points starting from 100 μM) using the same method.

[2] = tested on: THP-1 cells; assay: Host cell viability in pilot screening at 10 μM; type: cell-based, human; conditions: screening concentration 10 µM
Protocol: as §1, with “Infection ratio (IR) was determined with the value of the number of infected cells divided by total number of cells and the average number of parasites per macrophage (P/φ) was defined by the value of the number of parasites divided by the number of infected cells in the acquired image.” left out, “Compounds selected based on the screening results were further assessed in a dose-dilution manner (two-fold serial dilution for 20 points starting from 100 μM) using the same method.” left out

[3] = tested on: intracellular L. donovani; assay: Intracellular L. donovani in THP-1 cells, dose-dilution high-content imaging assay; type: cell-based; conditions: for EC50: Leishmania donovani, THP-1 cells infected with L. donovani, 72 h, duplicate measurements, read-out: Intracellular L. donovani EC50 ± SD
Protocol: as §1, with “image.” for “image. The average IR value of the negative control wells was calculated as 0.53. Compounds selected based on the screening results were further assessed in a dose-dilution manner (two-fold serial dilution for 20 points starting from 100 μM) using the same method.”
(§2) All of the half maximal effective concentrations (EC50) and the half maximal cytotoxic concentrations (CC50) values were calculated using two independent experiments. The dose-response curves were fitted using GraphPad Prism 6 software (GraphPad Software, San Diego, CA, USA) by using a sigmoidal dose-response equation with a variable hill slope option.

[4] = Host cell cytotoxicity (CC50) in infected THP-1 cells, dose-dilution assay; type: cell-based; conditions: human, infected THP-1 host cells, read-out: THP-1 Cell CC50 ± SD
Protocol: as §1, with “image.” for “image. The average IR value of the negative control wells was calculated as 0.53. Compounds selected based on the screening results were further assessed in a dose-dilution manner (two-fold serial dilution for 20 points starting from 100 μM) using the same method.”
as §2

[5] = tested on: L. donovani promastigotes; assay: L. donovani promastigote growth inhibition (resazurin); type: cell-based; conditions: Leishmania donovani, 72 h, 3 days exposure, read-out: L. donovani Promastigote EC50 ± SD
Protocol: (§3) L. donovani promastigote and T. b. brucei Lister 427 BSF growth inhibition were assayed by measuring the conversion of resazurin to resorufin. The assays were performed in 384-well plates that were seeded with L. donovani promastigotes or T. brucei 427 BSF (5 × 10^4 cells per well). After seeding, the parasites were exposed to the compounds for 3 days. Resazurin sodium salt (200 μM; R7017; Sigma-Aldrich, St. Louis, MO, USA) was then added, and the samples were incubated for 5 h. After incubation, the parasites were fixed using 4% paraformaldehyde, and the plates were analyzed using a Victor3^TM plate reader (PerkinElmer, Inc., Waltham, MA, USA) at 590 nm (emission) and 530 nm (excitation). […] Pentamidine was used for the T. b. brucei Lister 427 BSF growth inhibition assay.
as §2

[6] = tested on: T. b. brucei Lister 427 BSF; assay: T. b. brucei Lister 427 bloodstream form growth inhibition (resazurin); type: cell-based; conditions: Trypanosoma brucei, 72 h, 3 days exposure, read-out: T. brucei Lister 427 BSF EC50 ± SD
Protocol: as §3, §2

[7] = tested on: L. donovani; assay: VL mouse model (L. donovani-infected BALB/c mice); type: in vivo; conditions: miltefosine 30, Torin2 15, dactolisib 50, NVP-BGT226 5 mg/kg; for Inhibition of L. donovani In Vivo (%) (Mean ± SD): liver parasite burden vs vehicle, per os 5 days; for LDU in the Liver (Mean ± SD): once daily per os for 5 days from day 7 post-infection
Protocol: The highest dose for each compound without showing adverse effects was selected based on literature search. The vehicle for the compounds was 5% N-methylpyrrolidone, 15% polyvinylpyrrolidone, and 80% deionized water. Drug dosing solutions were freshly prepared each day. All drugs were administered once daily for 5 days via the per os route. On day 16 post-infection, all animals were humanely euthanized and assessed microscopically using Giemsa-stained liver imprints. Parasite burdens were measured by counting (blinded to treatment) the number of amastigotes per 1000 cell nuclei and multiplying this number by the liver weight (mg) (Leishman-Donovan Unit: LDU). The LDU values for the drug-treated samples were compared to those of the untreated samples, and the percent inhibition values were calculated.

[8] = tested on: T. b. brucei Lister 427; assay: HAT mouse model (acute T. b. brucei Lister 427 infection of BALB/c mice); type: in vivo; conditions: for parasitemia in T. brucei-infected mice: five consecutive days of treatment, Torin2 15 mg/kg, NVP-BGT226 5 mg/kg
Protocol: BALB/c mice were infected with T. b. brucei Lister 427 (4 × 10^4 cells) by intraperitoneal (i.p.) injection. […] Parasitemia was evaluated daily for 2 weeks by blood collection from the mouse tail vein, and survival was monitored for 1 month. Mice showing impaired health status and/or with a parasite load > 10^8 cells per mL of blood were euthanized.

[9] = Pilot toxicity study in mice; type: in vivo; conditions: 5 mg/kg dose
Protocol: For this proof of concept in vivo study, L. donovani infected BALB/c model was used to evaluate the ability of compound to reduce parasites in liver. […] Using the same dosing scheme, the efficacies of the compounds were evaluated in VL mouse model.

Row | Structure (SMILES) | inhibition of intracellular parasite survival in screening [1] | toxicity against the host cell in screening [2] | EC50 [3] [nM] | Selectivity Index (SI) ([3]; SI = THP-1 CC50/Intracellular L. donovani EC50) | CC50 at 72 h [4] [nM] | EC50 [5] [nM] | EC50 [6] [nM] | Inhibition of L. donovani In Vivo (%) (Mean ± SD) ([7]; 5 mg/kg) | LDU in the Liver (Mean ± SD) [7] [LDU] | mice surviving during 14 days post-infection ([8]; 5 mg/kg per os for 5 days) [%] | mice surviving more than 25 days without parasitemia ([8]; 5 mg/kg per os for 5 days) [%] | delay in survival over the Torin2-treated group ([8]; NVP-BGT226 5 mg/kg vs Torin2 15 mg/kg) [days] | parasitemia in T. brucei-infected mice [8] | toxicity in vivo [9] | Inhibition of L. donovani In Vivo (%) (Mean ± SD) [7] | mice surviving at least 13 days after infection ([8]; 15 mg/kg per os for 5 days) [%]
1 | COc1ncc(-c2ccc3nccc(-c4ccnnc4)c3c2)cc1NS(=O)(=O)c1ccc(F)cc1F [GSK2126458] | found active | some toxicity against the host cell | – | – | – | – | – | – | – | – | – | – | – | – | – | –
2 | COc1ccc(-c2ccc3ncc4c(c3c2)n(-c2ccc(N3CCNCC3)c(C(F)(F)F)c2)c(=O)n4C)cn1 [NVP-BGT226] | – | – | 140 ± 20 | 19 | 2660 ± 460 | 9 ± 1 | 0.054 ± 0.003 | 54% and 54 ± 3.18% | 516 ± 36 | 80 | 20 | 1 to 2 | reduced to under the limits of detection | no sign of toxicity was observed | – | –
3 | Nc1ccc(-c2ccc3ncc4ccc(=O)n(-c5cccc(C(F)(F)F)c5)c4c3c2)cn1 [Torin2, 9-(6-Aminopyridin-3-yl)-1-(3-(trifluoromethyl)phenyl)benzo[h][1,6]naphthyridin-2(1H)-one] | – | – | 250 ± 30 | – | – | 30 ± 4 | 110 ± 10 | – | 735 ± 66 | – | – | – | parasitemia was observed still by day 5 | – | 35% and 35 ± 5.81% | 80

Source: publication PMC7221892, “In Vitro and in Vivo Activity of mTOR Kinase and PI3K Inhibitors Against Leishmania donovani and Trypanosoma brucei” (Molecules, 2020)
